Consider six molecules from US20210190799A1, “METHOD FOR DIAGNOSING LIVER DISEASES AND METHOD FOR SCREENING THERAPEUTIC AGENT FOR LIVER DISEASES USING CHANGES IN EXPRESSION OF TM4SF5 PROTEIN” (SEOUL NATIONAL UNIVERSITY R&DB FOUNDATION, priority 2017, published 2021).

Numbering of substitutions follows the chain as printed.

Series [1] concerns the target T1, short extracellular loop (SEL) mutant of TM4SF5 protein (Homo sapiens, UniProt O14894).
T1 construct: a short extracellular loop (SEL) fragment mutant comprising the 31st to 42nd amino acid residues from the N-terminus; made in house
Put plainly: Arginine binding to short extracellular loop (SEL) mutant of TM4SF5. The settings on record: FIG. 15F. The protocol:
(§1) First, HEK293FT cells (Thermo, USA) were prepared by culturing in 5% CO2 at 37° C. using DMEM containing 10% FBS and antibiotics. The prepared cells were distributed in 150 mm plates and cultured to the density of 60%, which were transfected with the construct expressing TM4SF5, MetaP2, Castrol, TM4SF1, TM4SF4 and TM4SF5 proteins constructed in Example 11 using PEI. Two days after the transfection, the desired protein was precipitated under the same conditions and methods as described in Example 11 using the beads coated with streptavidin. The precipitate was added with 10 μM [3H]-arginine (American radiolabeled chemicals, USA), followed by reaction at 4° C. for 1 hour. At this time, a sample in which 10 mM of L-arginine was added to the same amount of beads was used as the control. Upon completion of the reaction, the beads were washed 3 times with lysis buffer, to which 2 m ? of scintillation cocktail (Ultima gold, Perkin Elmer, USA) was added. The mixture was vortexed and analyzed using a liquid scintillation counter (Tri-Carb, Perkin Elmer, USA).
(§2) First, a short extracellular loop (SEL) fragment mutant comprising the 31st to 42nd amino acid residues from the N-terminus of the amino acid sequence constituting TM4SF5 protein (SEQ. ID. NO: 1) and a long extracellular loop (LEL) fragment mutant comprising the 113th to 157th amino acid residues from the N-terminus were prepared. […]

Series [2] deals with T2, TM4SF5 mutant, 124th to 129th amino acid residues (Homo sapiens, UniProt O14894, E129A/F128S/G125A/H127A/W124A/Y126S).
T2 construct: made in house
T2 sequence (O14894 1-197 W124A/G125A/Y126S/H127A/F128S/E129A): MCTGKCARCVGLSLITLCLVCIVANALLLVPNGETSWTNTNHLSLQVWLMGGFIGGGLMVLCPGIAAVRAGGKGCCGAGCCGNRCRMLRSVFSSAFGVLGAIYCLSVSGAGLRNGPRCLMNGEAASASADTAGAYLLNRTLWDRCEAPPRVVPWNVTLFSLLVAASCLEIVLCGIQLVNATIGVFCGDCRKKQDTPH
Put plainly: Arginine binding to TM4SF5 mutants of the 124th to 129th amino acid residues. The following applies: FIG. 15G. The protocol: as §1, §2

The next series addresses T3, TM4SF5 protein (Homo sapiens, UniProt O14894).
T3 construct: in addition to the wild type of TM4SF5 protein (WT, full length); made in house; host or cells: HEK293FT cells, transient transfection with PEI, pull-down on streptavidin-coated beads
T3 sequence (O14894 1-197): T2 sequence (O14894 1-197 W124A/G125A/Y126S/H127A/F128S/E129A) with A124W, A125G, S126Y, A127H, S128F, A129E
In words: [3H]-arginine binding to precipitated TM4SF5 protein (liquid scintillation). The protocol:
as §1
An experiment was performed to confirm whether the binding of TM4SF5 protein and arginine confirmed in Example <12-2> was concentration-dependent. The experiment was performed under the same conditions and methods as described in Example <12-2>, except that HEK293FT cells transformed with TM4SF5 protein were used and 0, 0.01, 0.05. 0.1 or 0.5 mM L-arginine was added.

In another series the target is T4, Castor1 protein (Homo sapiens, UniProt Q8WTX7).
T4 construct: made in house; host or cells: HEK293FT cells, transient transfection with PEI, pull-down on streptavidin-coated beads
T4 sequence (Q8WTX7 1-329): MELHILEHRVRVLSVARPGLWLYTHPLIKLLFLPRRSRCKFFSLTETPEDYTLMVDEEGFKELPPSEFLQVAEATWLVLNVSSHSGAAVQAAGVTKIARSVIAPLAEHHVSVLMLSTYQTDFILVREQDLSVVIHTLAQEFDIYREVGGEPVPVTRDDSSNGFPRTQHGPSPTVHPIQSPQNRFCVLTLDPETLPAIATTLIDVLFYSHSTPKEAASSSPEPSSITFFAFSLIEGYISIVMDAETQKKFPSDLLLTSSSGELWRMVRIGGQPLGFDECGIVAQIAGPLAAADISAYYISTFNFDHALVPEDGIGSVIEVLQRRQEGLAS
Put plainly: [3H]-arginine binding to precipitated Castor1 protein. On the procedure: as §1

Series [3] in a line: High arginine diet for 10 weeks: body weight and liver fat (H&E). It is filed as in vivo, mouse. The settings on record: for weight gain compared to the mouse fed a normal diet: high arginine diet 10 weeks, FIG. 17A. On the procedure:
Particularly, the TM4SF5 gene KO mouse prepared in Example <7-1> was fed L-arginine (40 g/kg of mouse body weight) for 10 weeks.
The liver tissue was extracted from the TM4SF5 gene KO mouse fed a high arginine diet in Example <13-1>, and H&E staining was performed using the method described above.

A further series deals with SOCS3 gene. In words: SOCS3 shRNA in primary hepatocytes, Western blotting. The format is cell-based, mouse. The following applies: FIG. 8E. The source says: The primary hepatocytes isolated from the normal mouse (52 weeks old) were transfected with SOCS3 (NM_174466) shRNA (shSOCS3, sense 5′ […]-3′ SEQ. ID. NO: 111; antisense 5′ […]-3′ SEQ. ID. NO: 112) under the same conditions and methods as described in Example <4-1> to prepare hepatocytes wherein the expression of SOCS3 gene was suppressed, and the expression changes of SREBP1 and SOCS3 proteins and the phosphorylation changes of STAT3 were confirmed by Western blotting.

For series [4], the system named is STAT3 phosphorylation and laminin protein expression. In words: Western blotting of separated liver tissue of the liver disease model mouse treated with IL-6. The settings on record: FIG. 26A. The format is cell-based. On the procedure: (§3) Particularly, a lysis buffer [50 mM Tris-HCl (pH 7.4), 1% NP40, 0.25% sodium dioxycholate, 150 mM NaCl, 1 mM EDTA], SDS (sodium dodecyl sulfate), Na3O4V and protease inhibitor cocktail (GenDepot) were added to the obtained liver tissue, which was left at 4° C. for 15 minutes to lyse the tissue. The lysate was centrifuged for 30 minutes under the conditions of 13,000 rpm and 4° C. to obtain a supernatant. The proteins present in the supernatant were quantified using BCA reagent (Thermo Scientifics). 4× sample buffer [4 ml of 100% glycerol, 2.4 ml of Tris-HCl (pH 6.8), 0.8 g of SDS, 4 mg of brominated phenol blue, 0.4 ml of β-mercaptoethanol and 3.1 ml of H2O, final volume: 10 ml] was added thereto, which was boiled at 100° C. for 5 minutes. SDS-PAGE was performed, and the proteins were transferred to a nitrocellulose membrane (Whatman). The membrane was pretreated in a solution containing 5% skim milk for 1 hour, and reacted with the antibodies against laminin (Abcam, UK), ACC1 (Cell Signalling, USA), SREBP1 precursor (Santa cruz, USA), mature SREBP1 (Santa cruz, USA), MTP (Santa cruz, USA), PPARα (Santa cruz, USA), pY^706STAT3 (Millipore, USA), STAT3 (Santa cruz, USA), α-tubulin (Sigma, USA) and TM4SF5 (J Clin Invest. 2008 April; 118(4): 1354-66) as the primary antibodies at 4° C. for 15 hours. Then, the membrane was reacted with the secondary antibody, and developed on an X-ray film using an ECL solution (Pierce, USA).
In addition, the separated liver tissue was treated with IL-6 and Western blotting was performed as described above to confirm whether the increased STAT3 phosphorylation and laminin protein expression were dependent on IL-6. […] Therefore, it was confirmed that the expressions of laminin and laminin γ2 were increased depending on TM4SF5 protein.
(A western blot detects proteins with antibodies after separation by electrophoresis.)

The test system of another series is fat-related genes. Put plainly: Real-time PCR of fat-related genes in normal hepatocytes treated with IL-6. The format is cell-based, C57BL/6 normal mouse. The following applies: FIGS. 4B and 4C. Background: Quantitative PCR measures a nucleic acid by following its amplification.
For series [5], the system named is liver tissue. In words: Liver cancer induced by injecting diethylnitrosamine (DEN). The format is in vivo. The settings on record: transgenic mouse. The protocol:
The exacerbation process of liver disease was confirmed using the transgenic mouse as follows. Particularly, the transgenic mouse was induced with liver cancer by injecting diethylnitrosamine (DEN). The liver tissue was extracted from the mouse, and H&E staining was performed. As a result, it was confirmed that liver cancer was induced (FIG. 31A). It was also confirmed that the phosphorylation of STAT3 protein and the expression of laminin were increased as the expression of TM4SF5 protein increased (FIG. 31B).

The test system of series [6] is liver tissue. In words: Liver disease mouse model induced by carbon tetrachloride (CCl4). The format is in vivo, BALB/C mice. On the procedure: First, a mouse model in which liver disease was induced by intraperitoneally injecting carbon tetrachloride (CCl4) once a week for 1, 4 or 16 weeks at the concentration of 1 mg/kg to 4-week-old BALB/C mice (Orient Bio, Korea) was prepared.
On the other hand, after administering CCl4 to the TM4SF5 gene KO mouse prepared in Example <7-1> as described above, the liver tissue was obtained and Mason's trichrome staining was performed, and the results are shown in FIG. 22C. As a result, it was confirmed that the accumulation of collagen was decreased in the TM4SF5 gene KO mouse compared to the control group (FIG. 22C).

The target of the next series is T5, c-Src protein (Mus musculus, UniProt P05480).
T5 construct: from tissue; host or cells: liver tissue / hepatocytes of CCl4-treated BALB/C mice
Put plainly: Western blotting of separated liver tissue of the liver disease model mouse treated with c-Src inhibitor PP2 or control PP3. It is filed as cell-based. The settings on record: FIG. 26C. The protocol:
as §3, with “Then, the membrane was reacted with the secondary antibody, and developed on an X-ray film using an ECL solution (Pierce, USA).” left out

The mark [7] stands for this setting: primary hepatic epithelial cells.
[8] abbreviates: administered for 4 or 16 weeks, FIG. 22A.

With `N=C(N)NCCC[C@H](N)C(=O)O` [arginine, L-arginine], the “binding to SEL mutant of TM4SF5 protein” value in [1] is reported as “not bound”. Further, the “binding to TM4SF5 mutant of 124th to 129th residues” value in [2] was “not bound”. Further, the “concentration dependence of binding to TM4SF5 protein” value on TM4SF5 protein (0, 0.01, 0.05, 0.1 or 0.5 mM L-arginine, FIGS. 15D and 15E) is listed as “concentration-dependently”. For the same molecule, on TM4SF5 protein (10 μM [3H]-arginine, 4° C., 1 hour, FIGS. 15B and 15C), the “binding to TM4SF5 protein” value is given as “directly bound”. The “binding of TM4SF5 compared with control protein MetaP2” value at TM4SF5 protein (FIG. 15B) is “more strongly”. The “binding of TM4SF5 compared with TM4SF1 or TM4SF4” value on TM4SF5 protein (FIG. 15C) is “more strongly”. Moreover, the “binding of Castor1 compared with control protein MetaP2” value on Castor1 protein (FIG. 15B) is “more strongly”. In addition, the “binding to Castor1 protein” value on Castor1 protein (FIGS. 15B and 15C) is reported as “directly bound”. Besides, in series [3] (TM4SF5 gene KO mouse, FIG. 17B), the “weight gain of each mouse in comparison to the starting point of the high arginine diet” value is listed as “significantly decreased”. In addition, the “fat accumulation in the liver tissue, H&E staining” value in series [3] (TM4SF5 gene KO mouse, FIG. 17C) was “relatively suppressed”. Besides, the “weight gain compared to the mouse fed a normal diet” value in series [3] (TM4SF5 gene KO mouse) is “about 7%”; in [3] (normal mouse), “about 25%”. Moreover, the “fatty liver, H&E staining of liver tissue” value in series [3] (normal mouse, FIG. 17C) is recorded as “fatty liver was induced”.

As for “shSOCS3: SOCS3 shRNA, SEQ. ID. NO: 111 (sense) and 112 (antisense) (sense CAACAUCUCUGUCGGAAGAUU; antisense UCUUCCGACAGAGAUGUUGUU; listed as RNA, chemistry not given here)”, in the series with SOCS3 gene (setting [7]), the “amount of SREBP1 protein” value is reported as “decreases” and the “phosphorylation of STAT3 protein” value is reported as “increases”. Moreover, the “expression of SOCS3 gene” value in the series with SOCS3 gene (primary hepatocytes) is “decreased”.

As to “IL-6: a cytokine associated with fatty liver”, in series [4], the “expression of collagen 1” value was “increased”, the “level of laminin protein” value is on record as “not changed” and the “phosphorylation of STAT3 protein” value was “increased”. Besides, the “expressions of Srebp1, Srebp2, Fasn, CD36, Fabp1, Vldlr and Ldlr, the fat-related genes” value with fat-related genes is given as “increased”.

Turning to `CCN(CC)N=O` [diethylnitrosamine], the “liver cancer, H&E staining” value in the series on liver tissue [5] (FIG. 31A) is on record as “induced”. Moreover, in the series on liver tissue [5] (FIG. 31B), the “phosphorylation of STAT3 protein and expression of laminin” value is on record as “increased”.

`ClC(Cl)(Cl)Cl` [CCl4, carbon tetrachloride]: the “expression of TM4SF5 protein, phosphorylation of STAT3 protein and level of ECM in the liver tissue” value with liver tissue [6] (FIG. 23A) is on record as “all increased”. For the same molecule, the “accumulation of collagen, Mason's trichrome staining” value in the series on liver tissue [6] (TM4SF5 gene KO mouse compared to the control group, FIG. 22C) was “decreased”. Besides, in the series with liver tissue [6] (setting [8]), the “cells in the liver tissue, H&E and Mason's trichrome staining” value is listed as “died”; the “collagen between the cells” value is recorded as “accumulated”. The “mRNA levels of elastin, laminin α2, α3, α5, γ2, and γ3 chains versus control group not treated” value in the series on liver tissue [6] (administered for 4 or 16 weeks, FIG. 23B) is on record as “higher”.

As for `CC(C)(C)n1nc(-c2ccc(Cl)cc2)c2c(N)ncnc21` [PP2], on c-Src protein, the “expression of laminin protein” value is given as “suppressed” and the “phosphorylation of STAT3 protein” value is reported as “suppressed”.
